Assay results: ChEMBL document CHEMBL1201862, “PubChem BioAssay data set” (2004)
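In this assay, cells in 96-well plates receive the compound at five concentrations for 48 hours. Endpoints are linearly interpolated between the surrounding concentrations. At the GI50, growth is halved.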 The source made the active and inactive calls. Cut-off read from the data, not from the text of the source: active = GI50 up to about 1.1 µM and inactive = higher.

Assays:
Experiment in all cases: NCI anticancer screen, dose series, 48 h
[1] = test system: EKVX
[2] = test system: DMS-114
[3] = test system: SW-620
[4] = test system: ACHN
[5] = test system: SNB-19
[6] = test system: OVCAR-5
[7] = test system: HCC 2998
[8] = test system: RXF 393
[9] = test system: SF-295
[10] = test system: OVCAR-4
[11] = test system: HCT-116
[12] = test system: M14
[13] = test system: UACC-257
[14] = test system: LOX IMVI
[15] = test system: A498
[16] = test system: T47D
[17] = test system: MCF7
[18] = test system: MDA-MB-231
[19] = test system: MDA-N
[20] = test system: MDA-MB-435

Measured: GI50

c1ccc(COc2cccc3cccnc23)cc1
inactive: [1] 83.9 µM | [2] 36.3 µM | [3] > 100 µM | [4] > 100 µM | [5] > 100 µM | [6] > 100 µM | [7] > 100 µM | [8] 42.4 µM | [9] > 100 µM | [10] 97.3 µM | [11] 83.6 µM | [12] > 100 µM | [13] > 100 µM | [14] 54.5 µM

COC1OC(C)C(OCc2ccccc2)C(OS(=O)(=O)c2ccc(C)cc2)C1OS(=O)(=O)c1ccc(C)cc1 (stereo not drawn)
inactive: [1] > 100 µM | [2] > 100 µM | [3] > 100 µM | [4] > 100 µM | [5] > 100 µM | [6] > 100 µM | [7] > 100 µM | [8] > 100 µM | [9] > 100 µM | [10] > 100 µM | [11] > 100 µM | [12] > 100 µM | [13] > 100 µM

Nc1cc2c(C3OC(CO)C(O)C3O)n[nH]c2c(=S)[nH]1 (stereo not drawn)
inactive: [1] > 100 µM | [2] > 100 µM | [3] > 100 µM | [4] > 100 µM | [5] > 100 µM | [6] > 100 µM | [7] > 100 µM | [8] 32.7 µM | [9] > 100 µM | [10] 92.5 µM | [15] > 100 µM | [11] > 100 µM | [12] > 100 µM | [13] > 100 µM

CC1(C)OC(=O)C(=Cc2ccc(O)cc2)C(=O)O1
inactive: [1] > 100 µM | [2] > 100 µM | [3] > 100 µM | [4] > 100 µM | [5] > 100 µM | [6] > 100 µM | [7] > 100 µM | [9] > 100 µM | [10] > 100 µM | [15] > 100 µM | [11] > 100 µM | [12] > 100 µM | [13] > 100 µM | [14] > 100 µM

NC(=O)N/N=C(/Cc1nc2ccc(C(=O)c3ccccc3)cc2nc1O)C(=O)Nc1ccc(C(F)(F)F)cc1[N+](=O)[O-]
inactive: [1] 14.2 µM | [2] 52.1 µM | [3] 65.2 µM | [4] > 100 µM | [5] > 100 µM | [6] > 100 µM | [7] 61.4 µM | [9] 74.8 µM | [10] > 100 µM | [15] > 100 µM | [11] > 100 µM | [12] 85.9 µM | [13] > 100 µM | [14] 79.4 µM

CC1=NN(C(=O)CC(=O)NC(=O)CC(=O)Nc2ccccc2F)C(=O)C1/N=N/c1ccc([N+](=O)[O-])cc1 (stereo not drawn)
inactive: [1] 35.1 µM | [2] 21.1 µM | [3] 20 µM | [4] 30.1 µM | [5] 60.1 µM | [6] 97.7 µM | [7] 71.6 µM | [9] 37.2 µM | [10] 29.9 µM | [15] 34.3 µM | [11] 21 µM | [12] 57.4 µM | [13] 29.6 µM | [14] 19.6 µM

CCCc1nc(NC#N)nc(C(=O)Nc2ccccc2)c1CC
inactive: [1] > 100 µM | [2] > 100 µM | [3] > 100 µM | [4] > 100 µM | [5] > 100 µM | [6] > 100 µM | [7] > 100 µM | [8] > 100 µM | [9] > 100 µM | [15] > 100 µM | [11] > 100 µM | [12] > 100 µM | [13] > 100 µM | [14] > 100 µM

Cc1ccc(C)c(N2C(=O)C(=O)C(c3nc4ccccc4s3)/C(=N/NC(=O)NN)C2=O)c1 (stereo not drawn)
inactive: [1] > 100 µM | [2] > 100 µM | [3] > 100 µM | [4] > 100 µM | [5] > 100 µM | [7] > 100 µM | [8] > 100 µM | [9] > 100 µM | [10] > 100 µM | [15] > 100 µM | [11] > 100 µM | [12] > 100 µM | [13] > 100 µM

O=c1nc2sc3ccc4ccccc4c3n2nc1O
inactive: [1] 60 µM | [2] 75.2 µM | [3] 79.4 µM | [5] 60.1 µM | [7] 54.8 µM | [8] 15.5 µM | [9] 59.4 µM | [10] 28.8 µM | [11] 78.9 µM

Nc1ccc(/C=C/c2ccnc3ccccc23)cc1
inactive: [2] 15.1 µM | [3] 24.7 µM | [4] 19.2 µM | [5] 27.6 µM | [6] 19.6 µM | [7] 28.4 µM | [9] 16.1 µM | [10] 30 µM | [11] 17.5 µM | [12] 20.2 µM | [13] 22.2 µM

O=C1/C(=C/c2ccccc2Cl)COc2ccc(Br)cc21
inactive: [1] > 100 µM | [2] 38.3 µM | [3] 23.8 µM | [4] > 100 µM | [6] > 100 µM | [7] > 100 µM | [8] 39 µM | [9] 37.6 µM | [15] > 100 µM | [11] 25.1 µM | [13] > 100 µM | [14] > 100 µM

O=C(/C=C\c1ccsc1)c1ccccc1
inactive: [1] 12.9 µM | [16] 5.31 µM | [3] 2.91 µM | [4] 8.05 µM | [17] 1.74 µM | [5] 13.2 µM | [18] 4.17 µM | [6] 16.1 µM | [7] 9.44 µM | [8] 5.75 µM | [9] 15.8 µM | [10] 3.94 µM | [15] 5.31 µM | [19] 12.4 µM | [20] 10.6 µM | [11] 3.85 µM | [12] 8.47 µM | [13] 16.6 µM | [14] 2.21 µM

O=c1[nH]c2c(c(=O)[nH]1)SSC2
inactive: [1] 21.3 µM | [16] 11.2 µM | [3] 7.19 µM | [4] 26.5 µM | [17] 17.4 µM | [5] 25 µM | [18] 2.18 µM | [6] 16.6 µM | [7] 16.2 µM | [8] 14.5 µM | [9] 18.5 µM | [10] 17.3 µM | [15] 25.7 µM | [19] 1.66 µM | [20] 2.04 µM | [11] 3.14 µM | [12] 2 µM | [13] 4.99 µM | [14] 1.34 µM

CC(c1ccccc1)N1O[C@]12CC[C@@]1(C)C(CCCC13OCCO3)C2 (stereo partly drawn)
inactive: [2] 13.4 µM | [3] 16.7 µM | [4] 16.5 µM | [5] > 100 µM | [6] > 100 µM | [7] 75.5 µM | [8] 23.6 µM | [9] 22 µM | [10] 17.5 µM | [11] 16.1 µM | [12] 17.6 µM | [13] 21.4 µM | [14] 11.8 µM
